What was measured:
[1] = test system: K562 (human chronic myelogenous leukemia) cells; assay: Cell Titer Glo 2.0 cell viability assay; type: cell-based; conditions: Homo sapiens, K562, 72 h, K562 cells, 72 hours, Cell Titer Glo 2.0; read-out: K562 GI50
HTT = assay: HiBiT protein abundance assay, HTT HiBiT K562 cell line; type: cell-based, human; conditions: HiBiT K562 cell line, 24 hours, top dose 10 μM; read-out: Effect on protein abundance, HTT (IC50 category)
How it was run: (§1)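 K562 knock-in lines with endogenous HiBiT-tagged target, 10,000 cells/well in IMDM + FBS, treated 24 h at 37° C with 10-point 3-fold dilutions (top 10 μM final; DMSO ≤0.25%). Lytic Nano-Glo HiBiT luminescence normalized to untagged K562 baseline and DMSO controls; IC50 = concentration giving 50% abundance via four-parameter fit.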

MYB = assay: HiBiT protein abundance assay, MYB HiBiT K562 cell line; type: cell-based, human; conditions: HiBiT K562 cell line, 24 hours, top dose 10 μM; read-out: Effect on protein abundance, MYB (IC50 category)
How it was run: as §1

Target C = assay: RT-qPCR splicing assay panel, Target C canonical junction (CJ) mRNA; type: cell-based, human; conditions: Homo sapiens; canonical junction qPCR panel, Table 5; read-out: Target C (decrease in CJ mRNA levels, IC50)
How it was run: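 K562/A673 cells, 11-pt 3-fold compound titration from 10 uM final, DMSO ≤0.25%, 24 h 37 °C 5% CO2; lyse (DNase I or Igepal/Tris buffer pH 7.4); RT-qPCR for CJ isoform vs housekeeping gene (GAPDH/GUSB/PPIA).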

Row | GI50 [1] [µM] | IC50 (HTT) [µM] | IC50 (MYB) [µM] | IC50 (Target C) [µM] | Structure (SMILES)
1 | 0.1 to 1 | 0.1 to 1 | < 0.1 | 1 to 10 | Cc1c(O)c(-c2ccc3c(=O)n(C4CC(C)NC(C)C4)ccc3n2)cc2cn(C)nc12 (centres unmarked) [Compound 1447, 6-(2,6-dimethyl-4-piperidyl)-2-(6-hydroxy-2,7-dimethyl-indazol-5-yl)-1,6-naphthyridin-5-one]
2 | 0.1 to 1 | 0.1 to 1 | 0.1 to 1 | 1 to 10 | Cc1cn2cc(-c3cc(O)c4c(=O)n(C5CCNCC5)ccc4n3)cc(F)c2n1 [Compound 1448]
3 | 0.1 to 1 | 1 to 10 | 0.1 to 1 | > 10 | Cc1c(O)c(-c2ccc3c(=O)n([C@H]4CCNC4)ccc3n2)cc2cn(C)nc12 [Compound 1449, 2-(6-hydroxy-2,7-dimethyl-indazol-5-yl)-6-[(3S)-pyrrolidin-3-yl]-1,6-naphthyridin-5-one]
4 | 0.1 to 1 | 1 to 10 | 0.1 to 1 | > 10 | Cc1c(O)c(-c2ccc3c(=O)n([C@@H]4CCNC4)ccc3n2)cc2cn(C)nc12 [Compound 1450, 2-(6-hydroxy-2,7-dimethyl-indazol-5-yl)-6-[(3R)-pyrrolidin-3-yl]-1,6-naphthyridin-5-one]
5 | 0.1 to 1 | 0.1 to 1 | 0.1 to 1 | 0.1 to 1 | Cn1cc2cc(-c3ccc4c(=O)n([C@H]5CCNC5)ccc4n3)c(O)c(F)c2n1 [Compound 1451, 2-(7-fluoro-6-hydroxy-2-methyl-indazol-5-yl)-6-[(3S)-pyrrolidin-3-yl]-1,6-naphthyridin-5-one]
6 | 0.1 to 1 | 0.1 to 1 | 0.1 to 1 | 0.1 to 1 | Cn1cc2cc(-c3ccc4c(=O)n([C@@H]5CCNC5)ccc4n3)c(O)c(F)c2n1 [Compound 1452, 2-(7-fluoro-6-hydroxy-2-methyl-indazol-5-yl)-6-[(3R)-pyrrolidin-3-yl]-1,6-naphthyridin-5-one]
7 | 0.1 to 1 | 1 to 10 | 0.1 to 1 | > 10 | Cc1c(O)c(-c2ncc3c(=O)n([C@@H]4C[C@@H](C)N[C@@H](C)C4)ccc3n2)cc2cn(C)nc12 [Compound 1453, 6-[(2S,6R)-2,6-dimethyl-4-piperidyl]-2-(6-hydroxy-2,7-dimethyl-indazol-5-yl)pyrido[4,3-d]pyrimidin-5-one]
8 | 0.1 to 1 | 0.1 to 1 | 0.1 to 1 | 1 to 10 | Cc1c(O)c(-c2ncc3c(=O)n(C4C[C@@H](C)N[C@H](C)C4)ccc3n2)cc2cn(C)nc12 (stereo partly drawn) [Compound 1454, 6-[(2R,6R)-2,6-dimethyl-4-piperidyl]-2-(6-hydroxy-2,7-dimethyl-indazol-5-yl)pyrido[4,3-d]pyrimidin-5-one]
9 | < 0.1 | 0.1 to 1 | < 0.1 | 1 to 10 | Cc1c(O)c(-c2ncc3c(=O)n(C4C[C@H](C)N[C@@H](C)C4)ccc3n2)cc2cn(C)nc12 (stereo partly drawn) [Compound 1455, 6-[(2S,6S)-2,6-dimethyl-4-piperidyl]-2-(6-hydroxy-2,7-dimethyl-indazol-5-yl)pyrido[4,3-d]pyrimidin-5-one]
10 | 1 to 10 | 1 to 10 | 1 to 10 | > 10 | Cc1cn2cc(-c3cc(F)c4c(=O)n([C@@H]5CNC[C@H]5F)ccc4c3)cc(F)c2n1 [Compound 1456]
11 | 0.1 to 1 | 0.1 to 1 | 0.1 to 1 | 1 to 10 | Cc1cn2cc(-c3ncc4c(=O)n([C@@H]5CCNC6(CC6)C5)ccc4n3)cc(F)c2n1 [Compound 1457, 6-[(7R)-4-azaspiro[2.5]octan-7-yl]-2-(8-fluoro-2-methyl-imidazo[1,2-a]pyridin-6-yl)pyrido[4,3-d]pyrimidin-5-one]
